Biological target: Cholinesterase (Homo sapiens, UniProt P06276)
Sequence (P06276 whole entry): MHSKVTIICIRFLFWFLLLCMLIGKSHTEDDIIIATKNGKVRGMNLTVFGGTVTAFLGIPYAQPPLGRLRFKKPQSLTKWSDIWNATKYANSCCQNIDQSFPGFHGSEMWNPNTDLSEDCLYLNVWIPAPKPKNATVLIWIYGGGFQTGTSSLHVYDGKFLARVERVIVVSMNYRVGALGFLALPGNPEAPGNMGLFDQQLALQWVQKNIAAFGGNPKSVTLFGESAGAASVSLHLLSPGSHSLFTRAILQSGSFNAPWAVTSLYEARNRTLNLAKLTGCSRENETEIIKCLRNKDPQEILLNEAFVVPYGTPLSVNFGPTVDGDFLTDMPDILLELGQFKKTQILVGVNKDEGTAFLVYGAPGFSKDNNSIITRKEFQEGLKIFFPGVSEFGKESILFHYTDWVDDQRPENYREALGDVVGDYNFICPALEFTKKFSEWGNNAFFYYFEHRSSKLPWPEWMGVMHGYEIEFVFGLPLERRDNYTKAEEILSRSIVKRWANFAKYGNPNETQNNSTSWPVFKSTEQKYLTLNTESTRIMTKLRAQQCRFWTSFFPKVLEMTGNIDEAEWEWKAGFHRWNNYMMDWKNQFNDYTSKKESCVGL
Description: Inhibition of human BChE by Ellman's method

Row | SMILES | IC50 [µM]
1 | O=C(OCCCCN1CCC(OCc2ccccc2)CC1)c1ccc([N+](=O)[O-])cc1 | 5.23
2 | CC(C)(C)c1ccc(C(=O)OCCCCN2CCC(OCc3ccccc3)CC2)cc1 | 15.2
3 | CC(C)c1ccc(C(=O)OCCCCN2CCC(OCc3ccccc3)CC2)cc1 | 10.8
4 | O=C(OCCCCN1CCC(OCc2ccccc2)CC1)c1cccc(F)c1 | 1.58
5 | O=C(Nc1ccc(Cl)cc1)OCCCCN1CCC(OCc2ccccc2)CC1 | 0.25
6 | O=C(Nc1ccc(F)cc1)OCCCCN1CCC(OCc2ccccc2)CC1 | 0.78
7 | O=C(OCCCCN1CCC(OCc2ccccc2)CC1)c1ccccc1 | 1.89
8 | O=C(OCCCCN1CCC(OC(c2ccccc2)c2ccccc2)CC1)c1ccccc1 | 31.5
9 | O=C(OCCCCN1CCC(OC(c2ccccc2)c2ccccc2)CC1)c1ccc(Cl)cc1 | 38.4
10 | O=C(OCCCCN1CCC(OC(c2ccccc2)c2ccccc2)CC1)c1ccc(F)cc1 | 22.2
11 | CC(C)(C)c1ccc(C(=O)OCCCCN2CCC(OC(c3ccccc3)c3ccccc3)CC2)cc1 | 78.9
12 | CC(C)c1ccc(C(=O)OCCCCN2CCC(OC(c3ccccc3)c3ccccc3)CC2)cc1 | 23.2
13 | O=C(OCCCCN1CCC(OC(c2ccccc2)c2ccccc2)CC1)c1cccc(Cl)c1 | 57.9
14 | O=C(OCCCCN1CCC(OC(c2ccccc2)c2ccccc2)CC1)c1cccc(F)c1 | 31.5
15 | O=C(OCCCCN1CCC(OCc2ccccc2)CC1)c1ccc(F)cc1 | 0.56
16 | O=C(Nc1ccc(Cl)cc1)OCCCCN1CCC(OC(c2ccccc2)c2ccccc2)CC1 | 13.7
17 | O=C(OCCCCN1CCC(OCc2ccccc2)CC1)c1ccc(Cl)cc1 | 3.52
18 | O=C(OCCCCN1CCC(OCc2ccccc2)CC1)c1cccc(Cl)c1 | 1.35
19 | O=C(OCCCCN1CCC(OC(c2ccccc2)c2ccccc2)CC1)c1ccc([N+](=O)[O-])cc1 | 26.8
20 | O=C(Nc1ccc(F)cc1)OCCCCN1CCC(OC(c2ccccc2)c2ccccc2)CC1 | 15.7

Biological target: Acetylcholinesterase (Electrophorus electricus, UniProt O42275)
Sequence (O42275 whole entry): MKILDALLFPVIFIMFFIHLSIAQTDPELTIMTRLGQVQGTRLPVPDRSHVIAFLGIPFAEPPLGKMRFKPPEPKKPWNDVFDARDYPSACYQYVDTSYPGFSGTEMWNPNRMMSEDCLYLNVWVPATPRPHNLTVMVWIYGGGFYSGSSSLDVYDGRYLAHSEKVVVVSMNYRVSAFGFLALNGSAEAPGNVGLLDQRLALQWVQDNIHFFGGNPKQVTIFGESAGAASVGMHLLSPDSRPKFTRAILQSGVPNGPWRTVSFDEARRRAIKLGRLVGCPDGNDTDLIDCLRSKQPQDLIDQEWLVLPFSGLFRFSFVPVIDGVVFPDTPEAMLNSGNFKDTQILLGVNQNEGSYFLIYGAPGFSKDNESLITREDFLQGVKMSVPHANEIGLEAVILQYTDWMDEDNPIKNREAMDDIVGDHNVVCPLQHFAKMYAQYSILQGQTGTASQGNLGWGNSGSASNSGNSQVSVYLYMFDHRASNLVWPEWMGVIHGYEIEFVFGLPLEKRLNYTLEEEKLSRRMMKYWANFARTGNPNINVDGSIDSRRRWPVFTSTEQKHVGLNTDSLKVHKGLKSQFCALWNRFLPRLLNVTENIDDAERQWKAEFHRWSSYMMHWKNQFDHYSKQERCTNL
Description: Inhibition of Electrophorus electricus AChE by Ellman's method

Row | SMILES | IC50 [µM]
21 | O=C(OCCCCN1CCC(OC(c2ccccc2)c2ccccc2)CC1)c1ccc(Cl)cc1 | 0.31
22 | O=C(OCCCCN1CCC(OC(c2ccccc2)c2ccccc2)CC1)c1cccc(F)c1 | 7.72
